Results from patent publication US7081464B2, “Topical compositions of cyclic amides as immunotherapeutic agents” (Celgene Corporation, priority 1995, dated 2006).

Row | Structure (SMILES) | melting point [°C]
1 | COc1ccc(C(CC(=O)O)N2C(=O)c3ccccc3C2=O)cc1OC1CCCC1 (centres unmarked) [Example 2, 3-Phthalimido-3-(3-cyclopentyloxy-4-methoxyphenyl)propionic Acid] | 159 to 162
2 | COC(=O)CC(c1ccc(OC)c(OC2CCCC2)c1)N1C(=O)c2ccccc2C1=O (centres unmarked) [Example 5, Methyl 3-phthalimido-3-(3-cyclopentyloxy-4-methoxyphenyl)propionate] | 76 to 78
